Reference: patent US6407125B1, “Pharmacological agent and method of treatment” (Novactyl, Inc., priority 1995, dated 2002)

Columns and labels:
[1] = Stability experiments as preservative in foods and on fresh fruits; format: physicochemical; conditions: in foods and on the surface of fresh fruits
Excerpt: (§1) The chelating agents of the present invention can be used as preservatives in perishable items such as foods and pharmaceuticals and to prevent fungal growth on the surface of fresh fruits. Presently chemicals such as citrashine orthophenilphenol thiabendazole are used. […] Microbial and fungal growth is inhibited while the food components are unaffected. The preservative of the present invention has less likelihood of toxicity or untoward reactions if ingested that the present, complex chemical antifungals. The preferred concentration of picolinic acid or acceptable derivative for this use is approximately below 0.025% to be classified as a preservative. Of course, greater percentages, e.g. up to 99.9% also would be effective.

[2] = tested on: Microbial and fungal growth; test: Preservative effect on microbial and fungal growth in foods; conditions: used as preservative
Excerpt: as §1

[3] = Topical treatment of inflammation associated with acne; format: in vivo; conditions: 5% to 10% aqueous solution; more than 35 cases, adults and teenagers
Excerpt: Furthermore, it is believed that the response of cells to stress, such as exposure to UV radiation, chemicals, bacteria, parasites or fungi is associated with the induction of heat shock proteins.

LoVo cells = test: Growth of LoVo cells (total cell protein, cell number, DNA synthesis); format: cell-based, human; conditions: 3 mM picolinic acid
Method: Cells were plated at 1.5×10^5 cells/60-mm dish; 48 hours later, the medium was removed, and new media with or without 3 mM picolinic acid was added. Total cell protein was determined at the indicated times; each point is the average of triplicate measurements from 2 cultures.
In initial experiments to examine the effects of fusaric acid on cell growth and viability, WI-38 and LoVo cells were incubated for 24 to 72 hours in medium with or without various doses of fusaric acid (0.1-1 mM). The growth of both WI-38 and LoVo cells was inhibited by 500 μM fusaric acid in a time and dose dependent manner, as shown below in Table 2.
After 30 hours of treatment with 500 μM fusaric acid, there was a prominent decrease in cell number. DNA synthesis was completely (100%) inhibited by 24 hours. When treated with 500 μM fusaric acid, the majority of the LoVo cells acquired a rounded morphology by 48 hours.
However, after 100 hours, an increase in cell number was noted after 25 additional hours.

human papilloma viruses = test: Topical treatment of common warts; format: in vivo; conditions: 10% to 20% solution or 10% ointment in Aquaphor
Method: Five patients ranging in age from 11 years to 52 years and each having at least one common wart induced by human papilloma viruses was treated with a topical preparation of picolinic acid The topical preparation was either solution of 10% to 20% picolinic acid in deionized water or a topical ointment wherein 10% picolinic acid is incorporated into Aquaphor, i.e. 1 g of picolinic acid in 10 g of Aquaphor.

[4] = Topical treatment of psoriasis; format: in vivo, human; conditions: preliminary information
Excerpt: Several patients suffering from proliferative skin disorders such as psoriasis have been included in a recent ongoing study of the anti-proliferative effects of topical picolinic acid. […] The patients may be treated with a topical application of approximately 5% to 20% picolinic acid, or a derivative thereof, in an absorption base. Alternatively, the patient may be treated with a solution containing approximately 5% to 20% picolinic acid, or derivative, in deionized water. The topical preparation may be applied twice a day or in an alternative pharmacologically acceptable regimen.

lymphoma = test: Oral treatment of lymphoma and impaired immunity; format: in vivo, human; conditions: oral 2000 to 4000 mg per day
Method: The patient was a person with a history of lymphoma and impaired immunity. The patient had received standard therapy for lymphoma including the CHOP regimen. […] The patient contracted pneumonia three or four times per year and suffered from chronic otitis, chronic sinusitis and chronic Herpes Zoster infections.
The patient was treated with oral picolinic acid starting at 2000 mg per day and increased to 4000 mg per day divided equally in four doses. […] Their immunoglobulin levels rose to 3.3. Their chronic ear and sinus infections and pneumonia resolved concurrently. The Herpes Zoster disappeared.

[5] = in a 70 Kg subject; cited from earlier work
cells = conditions: cited from earlier work
transformed cells = conditions: cited from earlier work

O=C(O)c1ccccn1 [picolinic acid, 2-Pyridine carboxylic acid]
stability as a preservative [1]: highly stable
microbial and fungal growth [2]: inhibited
treatment of inflammation associated with acne [3]: successfully treated
growth of LoVo cells (LoVo cells): inhibited
wart outcome (human papilloma viruses; after approximately 4 to 6 weeks): the warts were gone
wart appearance (human papilloma viruses; after seven days, five patients): central necrosis of the wart occurred
regression of psoriasis [4]: significant effect in inducing regression of the psoriasis
chronic ear and sinus infections and pneumonia (lymphoma): resolved
lymphoma response (lymphoma; approximately two weeks): reduction in size of lymph nodes
immunoglobulin levels (lymphoma; before treatment 0.6 to 0.7): 3.3
LD-50 [5]: 140 grams
incorporation of iron into the cells (cells): inhibits incorporation of iron into the cells
removal of radioiron from the cells (cells): effectively removes radioiron from the cells
cytotoxicity in transformed cells (transformed cells): cytotoxicity and cell death
